Measurements: patent US4333938A, “Imino derivatives of 5-aminobenzodioxole-1,3 which are useful as medicaments” (Laboratoires Sarget, priority 1979, dated 1982)
“And” between values parts separate entries of the source, which are not always exact repeats. Equal values may be shown once.

Key:
[1] = test system: carrageenan-induced granulomas; test: activity on carrageenan-induced granulomas; assay type: in vivo, Male Wistar rats
Procedure: Male Wistar rats weighing 130 to 150 grams were given a subcutaneous injection in the central part of the skin of the back of 0.5 ml of an aqueous suspension of carrageenan. Two doses of the test substance are administered, one 30 minutes before and the other 6 hours after carrageenan. At the end of 24 hours the rats were sacrificed and the granulomas were removed and weighed before and after drying for 24 hours at 50° C. The difference in weight of the granulomas wet and dry represents the exudate
These AD50 are respectively 175(142-215) and 175(150-205) mg/kg.

cotton pellet granulomas = test: inhibition of cotton pellet granulomas; assay type: in vivo, male Sprague-Dawley rats; settings: oral, daily for 10 days
Procedure: Two cotton pellets weighing 70 mg were implanted under the back skin of male Sprague-Dawley rats anesthetized with ether. Starting the next day, the compound was administered orally daily for 10 days. The rats were sacrificed and the pellets were removed and weighed before and after drying at 50° C. for 24 hours. The weights used were those obtained after deduction of the weight of the implants. The average of the quantities so calculated was determined for each group and compared to the averages of the control group.

solubility in water = assay type: physicochemical
phenylbenzoquinone (PBQ) = test: analgesic activity, phenylbenzoquinone (PBQ) challenge; assay type: in vivo; settings: male Swiss mouse, oral
Procedure: The analgesic activity was determined in the male Swiss mouse using phenylbenzoquinone (PBQ) as the challenging agent (variation of the method of Siegmund et al, Proc. Soc. Exp. Biol. Med. […], 95, 729-31). […] The ED50 was determined by the method of Lichfield and Wilcoxon.

carageenan-induced edema = test: inhibition of carrageenan-induced edema; assay type: in vivo, male Wistar rat; settings: oral
Procedure: The inflammation is produced in the male Wistar rat by injection of 0.1 ml of a 0.5% suspension of carageenan in physiological serum, into the muscular fascia of the metatarsal region of the hind foot of the animal. The test substance is administered orally at the same time as the carageenan or 30 or 60 min before carageenan. The edema is measured by plethysmometry three hours after the adminstration of the carrageenan.

[2] = oral toxicity (mortality) in the mouse; settings: in vivo, Swiss mice
Procedure: (§1) The percentages of mortality produced by the compounds of this invention when administered orally to Swiss mice are shown in Table 1. The animals, free from specific pathogenic organisms were housed in an air conditioned room for 24 to 48 hours before the start of the experiment. They were separated into groups of 5 males and 5 females. The materials were administered to animals which had been fasted for 24 hours by means of a gastric tube in suspension in a 6% thickened julep using a volume equivalent to 0.1 ml per 10 g of body weight. […] They remained under observation for two weeks before being sacrificed and autopsied.

Wistar rat = test: oral toxicity (mortality) in the Wistar rat; assay type: in vivo; settings: 3000 mg/kg
Procedure: as §1
The toxicities of the compounds of Examples 2 and 3 were determined in the Wistar rat. The protocol which was followed was the same as that described for the mice, except that the compounds were administered in a volume equivalent to 0.5 ml per 100 g of body weight of rat. […] The product of Example 3 produced no mortality at 2000 mg/kg and 20% mortality at 3000 mg/kg.

[3] = test system: edema produced by serotonin; test: inhibition of serotonin-induced edema; assay type: in vivo, Wistar rat; settings: oral, 30 minutes before serotonin
Procedure: In the Wistar rat inflammation is induced by intrapedal injection of 0.1 ml of a 0.02% solution of serotonin in physiological serum. The test substance is administered orally 30 minutes before the serotonin and the edema is measured by plethysmometry one hour after its release.

stomachs = test: ulcerogenic activity; assay type: in vivo, female Wistar rat; settings: 150 mg/kg daily
Procedure: The ulcerogenic activity was determined in the female Wistar rat using a variation of the procedure described by J. M. Lwoff, J. Pharmacol. 1971, 3, 1, 81-3. The test substance was administered daily for 3 days to the animals maintained on a aqueous diet. The stomachs were removed after 1, 2, and 3 days of treatment and the ulcerations were classified from 0 to 4. The ulceration index is calculated for each group of animals as the product (average of the classes x the percentage of animals afflicted), while distinguishing acute ulcerations from ulcers which were in the process of healing.

Which “Exudate, % activity” value ([1]; 100 mg/kg administered twice) does the source give for `Cc1ccc(C=Nc2ccc3c(c2)OCO3)s1` [Example 2, N-(5-methyl-2-thienylidene)-5-aminobenzodioxole-1,3] here?
The value was 31%.

And the “Exudate, % animals 30% protected” value ([1]; 100 mg/kg administered twice)?
Its value is 62%.

What about the “Exudate, % animals 30% protected” value ([1]; 150 mg/kg administered twice) of the same compound?
The value was 25% and 14%.

What about the “Weight of dry granuloma, % animals 30% protected” value ([1]; 150 mg/kg administered twice) of the same compound?
The value was 25% and 14%.

And the “Weight of wet granuloma, % animals 30% protected” value ([1]; 150 mg/kg administered twice)?
The value was 25% and 14%.

And the “Exudate, % activity” value ([1]; 200 mg/kg administered twice)?
The value was 39%.

What about the “Exudate, % animals 30% protected” value ([1]; 200 mg/kg administered twice) of the same compound?
The value was 75%.

And the “Weight of dry granuloma, % activity” value ([1]; 200 mg/kg administered twice)?
The value was 41% and 22%.

And the “Weight of dry granuloma, % animals 30% protected” value ([1]; 200 mg/kg administered twice)?
Its value is 75% and 50%.

And the “Weight of wet granuloma, % activity” value ([1]; 200 mg/kg administered twice)?
The value was 39% and 24%.

And the “Weight of wet granuloma, % animals 30% protected” value ([1]; 200 mg/kg administered twice)?
The value was 75% and 50%.

What about the “Exudate, % activity” value ([1]; 300 mg/kg administered twice) of the same compound?
The value was 18%.

What about the “Exudate, % animals 30% protected” value ([1]; 300 mg/kg administered twice) of the same compound?
Its value is 2%.

And the “Weight of dry granuloma, % activity” value ([1]; 300 mg/kg administered twice)?
Its value is 9%.

What about the “Weight of dry granuloma, % animals 30% protected” value ([1]; 300 mg/kg administered twice) of the same compound?
The value was 25%.

What about the “Weight of wet granuloma, % activity” value ([1]; 300 mg/kg administered twice) of the same compound?
Its value is 18%.

What about the “Weight of wet granuloma, % animals 30% protected” value ([1]; 300 mg/kg administered twice) of the same compound?
Its value is 25%.

And the ED50 ([1]; Rattus norvegicus, 24 h, dose which protects 50% of the animals to the extent of 30% with respect to wet weight of the granuloma, read-out: AD50 (the source's name))?
The ED50 was 175 mg/kg.

What about the “% inhibition with respect to dry pellets” value (cotton pellet granulomas; dose 150) of the same compound?
Its value is 5%.

And the “% inhibition with respect to wet pellets” value (cotton pellet granulomas; dose 150)?
Its value is 12%.

What about the “% inhibition with respect to dry pellets” value (cotton pellet granulomas; dose 300) of the same compound?
The value was 23%.

And the “% inhibition with respect to wet pellets” value (cotton pellet granulomas; dose 300)?
The value was 17%.

What about the solubility in water (solubility in water) of the same compound?
The solubility in water was “insoluble in water”.

And the “% analgesic activity” value (phenylbenzoquinone (PBQ); 100 mg/kg)?
Its value is 19%.

What about the “% analgesic activity” value (phenylbenzoquinone (PBQ); 200 mg/kg) of the same compound?
Its value is 49%.

What about the “% analgesic activity” value (phenylbenzoquinone (PBQ); 250 mg/kg) of the same compound?
Its value is 51%.

What about the “% analgesic activity” value (phenylbenzoquinone (PBQ); 300 mg/kg) of the same compound?
Its value is 40%.

What about the “% inhibiting activity on carrageenan-induced edema” value (from here on “% inhibiting activity”) (carageenan-induced edema; To - 30, 75 mg/kg) of the same compound?
The value was 21%.

And the “% inhibiting activity” value (carageenan-induced edema; To - 30, 150 mg/kg)?
The value was 47%.

What about the “% inhibiting activity” value (carageenan-induced edema; To - 30, 300 mg/kg) of the same compound?
Its value is 61%.

And the “% inhibiting activity” value (carageenan-induced edema; To - 60, 75 mg/kg)?
Its value is 15%.

And the “% inhibiting activity” value (carageenan-induced edema; To - 60, 150 mg/kg)?
Its value is 26%.

What about the “% inhibiting activity” value (carageenan-induced edema; To - 60, 225 mg/kg) of the same compound?
The value was 49%.

And the “% inhibiting activity” value (carageenan-induced edema; To - 60, 300 mg/kg)?
The value was 66%.

And the “% inhibiting activity” value (carageenan-induced edema; at To, 100 mg/kg)?
Its value is 30%.

What about the “% inhibiting activity” value (carageenan-induced edema; at To, 150 mg/kg) of the same compound?
Its value is 64%.

What about the “% inhibiting activity” value (carageenan-induced edema; at To, 200 mg/kg) of the same compound?
Its value is 33%.

What about the “% inhibiting activity” value (carageenan-induced edema; at To, 300 mg/kg) of the same compound?
The value was 59%.

What about the mortality at 336 h ([2]; 750 mg/kg) of the same compound?
The mortality at 336 h was 10%.

And the mortality at 336 h ([2]; 1000 mg/kg)?
The mortality at 336 h was 20%.

What about the mortality at 336 h ([2]; 1250 mg/kg) of the same compound?
The mortality at 336 h was 0%.

And the mortality at 336 h ([2]; 1500 mg/kg)?
The mortality at 336 h was 60%.

What about the “mortality (in words)” value (Wistar rat) of the same compound?
The value was “no mortality”.

And the “% inhibitory activity on serotonin edema” value ([3]; 100 mg/kg)?
Its value is 39%.

What about the “% inhibitory activity on serotonin edema” value ([3]; 200 mg/kg) of the same compound?
Its value is 29%.

What about the “% inhibitory activity on serotonin edema” value ([3]; 400 mg/kg) of the same compound?
Its value is 37%.

And the “Ulceration Index, acute” value (stomachs; Day 1)?
The value was 6.

What about the “Ulceration Index, healing” value (stomachs; Day 1) of the same compound?
Its value is 0.

What about the “Ulceration Index, acute” value (stomachs; Day 2) of the same compound?
Its value is 2.

And the “Ulceration Index, healing” value (stomachs; Day 2)?
Its value is 6.

What about the “Ulceration Index, acute” value (stomachs; Day 3) of the same compound?
Its value is 48.

What about the “Ulceration Index, healing” value (stomachs; Day 3) of the same compound?
Its value is 28.
